Patent US11963959B2, “Inhibitors for coronavirus” (Southwest Research Institute, priority 2021, dated 2024)
Where two headings read alike, the source gives them in different places.

Columns and labels:
[1] = system: SARS-CoV-2 (USA-WA1/2020); assay: microbe, parasite or virus in culture; assay type: cell-based; conditions: for EC50 / EC90: Severe acute respiratory syndrome coronavirus 2, Vero C1008; for SI: selectivity index=CC50/EC50
in vitro = conditions: African green monkey
[2] = PK studies in mice, subcutaneous twice-a-day dosing, plasma and lung; assay type: in vivo; design: Tmax: unit not given here; conditions: for AUC / Cmax / half-life: mouse, sc
Procedure: In addition to the above, pharmokinetic (PK) studies have been completed on additional representative compounds of the pyyroloquinazolines noted herein. More specifically, pharmokinetic studies were conducted for Compound 8, 7-(2-(fluorobenzyl)-7H-pyrrolo[3,2-f]quinazoline-1,3-diamine having the following structure:
(§1) Reference is therefore made to FIG. 8 which provides the animal (mice) compound concentration versus time plots in blood plasma for dosing of Compound 8 at 10 mg/kg, subcutaneous, twice-a-day, at time points 0, 0.5, 1, 2, 4, 8, 12 hours post dose up to 36 hours. FIG. 9 provides the animal (mice) compound concentration versus time plots also for Compound 8 in the lung at 10 mg/kg, subcutaneous, twice-a-day, at time points 0, 0.5, 1, 2, 4, 8, 12 post dose up to 36 hours.
as §1, with “FIG. 10” for “FIG. 8”, “Compound 9” for “Compound 8”, “at 25” for “at 10”, “FIG. 11” for “FIG. 9”
(§2) Reference is made to FIG. 12 which provides the animal (mice) compound concentration versus time plots in blood plasma for dosing of Compound 10 at 25 mg/kg, subcutaneous, twice-a-day, at time points 0, 0.5, 1, 2, 4, 8, 12 hours post dose up to 36 hours. FIG. 13 provides the animal (mice) compound concentration versus time plots also for Compound 10 in the lung at 25 mg/kg, subcutaneous, twice-a-day, at time points 0, 0.5, 1, 2, 4, 8, 12 hours post dose up to 36 hours.
Reference is made to FIG. 14 which provides the animal (mice) compound concentration versus time plots in blood plasma for dosing of Compound 11 at 25 mg/kg, subcutaneous, twice-a-day, at time points 0, 0.5, 1, 2, 4, 8, 12 hours post dose up to 36 hours. FIG. 15 provides the animal (mice) compound concentration versus time plots also for Compound 11 in the lung at 25 mg/kg, subcutaneous, twice-a-day, at time points 0, 0.5, 1, 2, 4, 8, 12 hours post does up to 36 hours.
as §2, with “FIG. 16” for “FIG. 12”, “Compound 12 at” for “Compound”, “10” for “10 at 25”, “FIG. 17” for “FIG. 13”, “Compound 12” for “Compound 10”, “at 10” for “at 25”

[3] = Table 1, SARS-CoV-2 strain, VeroE6, two biological replicates and 8 technical replicates, read-out: EC50
[4] = Table 1, SARS-CoV-2 strain, VeroE6, two biological replicates and 8 technical replicates, read-out: EC90
[5] = Table 2, SARS-CoV-2 strain, VeroE6, read-out: EC50
[6] = Table 2, SARS-CoV-2 strain, VeroE6, read-out: EC90
[7] = Table 7, SARS-CoV-2 strain, VeroE6, read-out: EC50
[8] = Table 7, SARS-CoV-2 strain, VeroE6, read-out: EC90
[9] = footnote of PK table, read-out: EC50
[10] = footnote of PK table, read-out: EC90
[11] = 10 mg/kg subcutaneous twice-a-day
[12] = lung, 10 mg/kg subcutaneous twice-a-day
[13] = plasma, 10 mg/kg subcutaneous twice-a-day
[14] = 25 mg/kg subcutaneous twice-a-day
[15] = lung, 25 mg/kg subcutaneous twice-a-day
[16] = plasma, 25 mg/kg subcutaneous twice-a-day

Structure (SMILES): Nc1nc(N)c2c(ccc3c2ccn3Cc2ccccc2C(F)(F)F)n1 [Compound 1, 7-(2-(trifluoromethyl)benzyl)-7H-pyrrolo[3,2-f]quinazoline-1,3-diamine]
- EC50 [1]: 30 ± 10 nM
- EC90 [1]: 70 ± 30 nM
- SI ([1]; Table 1): 66.8
- CC50 (in vitro): 2 ± 0.25 µM

Structure (SMILES): Cc1ccccc1Cn1ccc2c3c(N)nc(N)nc3ccc21 [Compound 2, 7-(2-methylbenzyl)-7H-pyrrolo[3,2-f]quinazoline-1,3-diamine]
- EC50 [1, 3]: 20 ± 4 nM
- EC90 [1, 4]: 32 ± 50 nM
- SI ([1]; Table 1): 245
- CC50 (in vitro): 4.94 ± 0.55 µM

Structure (SMILES): Cc1cc2c3c(N)nc(N)nc3ccc2n1Cc1ccc(C#N)cc1 [Compound 3, 4-((1,3-diamino-8-methyl-7H-pyrrolo[3,2-f]quinazolin-7-yl)methyl)benzonitrile]
- EC50 [1, 3]: 13 ± 5 nM
- EC90 [1, 4]: 30 ± 20 nM
- SI ([1]; Table 1): 477.3
- CC50 (in vitro): 6.41 ± 0.7 µM

Structure (SMILES): C=CCn1ccc2c3c(N)nc(N)nc3ccc21 [Compound 4, 7-allyl-7H-pyrrolo[3,2-f]quinazoline-1,3-diamine]
- EC50 [1, 3]: 470 ± 210 nM
- EC90 [1, 4]: 850 ± 460 nM
- SI ([1]; Table 1): >63.8
- CC50 (in vitro): > 30 µM

Structure (SMILES): O=C(c1sc(-c2ccccc2)nc1-c1ccccc1)N1C[C@H]2CNC[C@H]2C1 [Compound 5, (2,4-diphenylthiazol-5-yl)((3aR,6aS)-hexahydropyrrolo[3,4-c]pyrrol-2(1H)-yl)methanone]
- EC50 [1, 5]: 8300 nM
- EC90 [1, 6]: 75000 nM
- SI ([1]; Table 2): 9.6
- CC50 (in vitro): 79.7 µM

Structure (SMILES): O=C(c1sc(-c2ccccc2)nc1-c1ccc(Cl)cc1)N1C[C@H]2CNC[C@H]2C1 [Compound 6, (4-(4-chlorophenyl)-2-phenylthiazol-5-yl)((3aR,6aS)-hexahydropyrrolo[3,4-c]pyrrol-2(1H)-yl)methanone]
- EC50 [1, 5]: 4200 nM
- EC90 [1, 6]: 13300 nM
- SI ([1]; Table 2): >4.0
- CC50 (in vitro): 17.1 µM

Structure (SMILES): O=C(c1sc(-c2ccc(Cl)cc2)nc1-c1ccccc1)N1C[C@H]2CNC[C@H]2C1 [Compound 7, (2-(4-chlorophenyl)-4-phenylthiazol-5-yl)((3aR,6aS)-hexahydropyrrolo[3,4-c]pyrrol-2(1H)-yl)methanone]
- EC50 [1, 5]: 4700 nM
- EC90 [1, 6]: 7960 nM
- SI ([1]; Table 2): 2.3
- CC50 (in vitro): 11 µM

Structure (SMILES): Nc1nc(N)c2c(ccc3c2ccn3Cc2ccccc2F)n1 [Compound 8]
- EC50 [1, 7]: 50 ± 31 nM
- EC90 [1, 8]: 160 ± 142 nM
- EC50 [1, 9]: 0.0246 µg/mL
- EC90 [1, 10]: 0.0799 µg/mL
- SI ([1]; Table 7): 98
- tolerability [2, 11]: relatively well-tolerated
- Time > EC90 [2, 12]: 98.3%
- Tmax [2, 12]: 98.3
- AUC [2, 12]: 13000 ng·h/mL
- Cmax [2, 12]: 4140 ng/mL
- half-life [2, 12]: 224 min
- AUC [2, 13]: 2140 ng·h/mL
- Cmax [2, 13]: 675 ng/mL
- half-life [2, 13]: 186 min
- Time > EC90 [2, 13]: 65%
- Tmax [2, 13]: 1.4
- CC50 (in vitro): 4.89 ± 4.7 µM

Structure (SMILES): Nc1nc(N)c2c(ccc3c2ccn3Cc2cccnc2)n1 [Compound 9, 7-(pyridin-3-ylmethyl)-7H-pyrrolo[3,2-f]quinazoline-1,3-diamine]
- EC50 [1, 7]: 160 ± 61 nM
- EC90 [1, 8]: 360 ± 193 nM
- EC50 [1, 9]: 0.058 µg/mL
- EC90 [1, 10]: 0.142 µg/mL
- SI ([1]; Table 7): >187
- tolerability [2, 14]: relatively well-tolerated
- Time > EC90 [2, 15]: 73%
- Tmax [2, 15]: 1.9
- AUC [2, 15]: 12400 ng·h/mL
- Cmax [2, 15]: 3320 ng/mL
- half-life [2, 15]: 168 min
- AUC [2, 16]: 1190 ng·h/mL
- Cmax [2, 16]: 365 ng/mL
- half-life [2, 16]: 126 min
- Time > EC90 [2, 16]: 55%
- Tmax [2, 16]: 1.6
- CC50 (in vitro): > 30 µM

Structure (SMILES): Nc1nc(N)c2c(ccc3c2ccn3Cc2ccncc2)n1 [Compound 10, 7-(pyridin-4-ylmethyl)-7H-pyrrolo[3,2-f]quinazoline-1,3-diamine]
- EC50 [1, 7]: 80 ± 12 nM
- EC90 [1, 8]: 240 ± 110 nM
- EC50 [1, 9]: 0.0813 µg/mL
- EC90 [1, 10]: 0.221 µg/mL
- SI ([1]; Table 7): >375
- tolerability [2, 14]: relatively well-tolerated
- Time > EC90 [2, 15]: 63%
- Tmax [2, 15]: 1.2
- AUC [2, 15]: 7820 ng·h/mL
- Cmax [2, 15]: 2910 ng/mL
- half-life [2, 15]: 162 min
- AUC [2, 16]: 1600 ng·h/mL
- Cmax [2, 16]: 678 ng/mL
- half-life [2, 16]: 126 min
- Time > EC90 [2, 16]: 44%
- Tmax [2, 16]: 1.2
- CC50 (in vitro): > 30 µM

Structure (SMILES): Nc1nc(N)c2c(ccc3c2ccn3Cc2ccccn2)n1 [Compound 11, 7-(pyridin-2-ylmethyl)-7H-pyrrolo[3,2-f]quinazoline-1,3-diamine]
- EC50 [1, 7]: 120 ± 50 nM
- EC90 [1, 8]: 360 ± 230 nM
- EC50 [1, 9]: 0.0435 µg/mL
- EC90 [1, 10]: 0.142 µg/mL
- SI ([1]; Table 7): 128
- tolerability [2, 14]: relatively well-tolerated
- Time > EC90 [2, 15]: 85%
- Tmax [2, 15]: 1.28
- AUC [2, 15]: 14600 ng·h/mL
- Cmax [2, 15]: 3270 ng/mL
- half-life [2, 15]: 198 min
- AUC [2, 16]: 1170 ng·h/mL
- Cmax [2, 16]: 348 ng/mL
- half-life [2, 16]: 156 min
- Time > EC90 [2, 16]: 45%
- Tmax [2, 16]: 1.6
- CC50 (in vitro): 15.5 ± 10.6 µM

Structure (SMILES): Nc1nc(N)c2c(ccc3c2ccn3CC2CCCCC2)n1 [Compound 12, 7-(cyclohexylmethyl)-7H-pyrrolo[3,2-f]quinazoline-1,3-diamine]
- EC50 [1, 7]: 120 ± 87 nM
- EC90 [1, 8]: 320 ± 320 nM
- EC50 [1, 9]: 0.0177 µg/mL
- EC90 [1, 10]: 0.0325 µg/mL
- SI ([1]; Table 7): 41
- tolerability [2, 11]: relatively well-tolerated
- Time > EC90 [2, 12]: 100%
- Tmax [2, 12]: 1.4
- AUC [2, 12]: 34100 ng·h/mL
- Cmax [2, 12]: 10100 ng/mL
- half-life [2, 12]: 186 min
- AUC [2, 13]: 968 ng·h/mL
- Cmax [2, 13]: 348 ng/mL
- half-life [2, 13]: 252 min
- Time > EC90 [2, 13]: 64%
- Tmax [2, 13]: 1.4
- CC50 (in vitro): 4.91 ± 0.2 µM
